How the values were obtained:
[1] = Solubility in water; format: physicochemical; details: 25° C., RH 65%, 100 g deionized water, added 0.1 g at a time
Method: Specifically, the measurement is performed by adding the compound in an amount of 0.1 g at a time.

[2] = Maximum absorption wavelength (absorption spectrum, spectrophotometer); format: physicochemical
Description: (2) load the measurement aqueous solution to a quartz cell (optical path length=10 mm, thickness 1.25 mm), and measure the absorption spectrum using a spectrophotometer (e.g., visible-ultraviolet absorption spectrometer V-670 manufactured by JASCO Corporation). As the absorption spectrum of the measurement aqueous solution, a corrected absorption spectrum obtained by measuring the absorption spectrum of water alone in advance and deducting this absorption spectrum of water from the absorption spectrum of the measurement aqueous solution is used. […] (2) The thus obtained measurement aqueous solutions were each loaded to a quartz cell (optical path length—10 mm, thickness 1.25 mm), and an absorption spectrum was measured using a spectrophotometer (e.g., visible-ultraviolet absorption spectrometer V-670 manufactured by JASCO Corporation). […] Further, as the absorption spectrum, a corrected absorption spectrum obtained by measuring the absorption spectrum of the solvent itself in advance and deducting this absorption spectrum of the solvent from the absorption spectrum of the measurement solution was used.

[3] = 0.1%-by-mass aqueous solution, range of 300 nm to 600 nm
[4] = measurement solution in acetonitrile (low solubility in water)

SMILES	Solubility in 100 parts by mass of water [1]	Maximum absorption wavelength [2, 3]	Maximum absorption wavelength [2, 4]
O=C(O)c1cccc2c(=O)c3ccccc3sc12 [Compound 1]	0.9 parts by mass	–	–
O=C(O)c1cccc2c(=O)c3ccccc3sc12 [Compound 61]	1.2 parts by mass	–	–
CC(C)(O)C(=O)c1ccc(OCCO)cc1 [Compound 101]	0.8 parts by mass	270 nm	–
O=C(c1ccccc1)c1ccccc1 [Compound 103, benzophenone]	–	–	253 nm
CC12CCC(C(=O)C1=O)C2(C)C (centres unmarked) [Compound 104, camphor quinone]	<0.1 parts by mass	–	460 nm
Cc1cc(C)c(C(=O)P(=O)(O)c2ccccc2)c(C)c1 [Compound 105]	≥50 parts by mass	371 nm	–
O=C(O)c1cccc2c(=O)c3ccccc3sc12 [Compound 106, thioxanthone carboxylic acid]	<0.1 parts by mass	–	391 nm

— patent US11618742B2, “Radical polymerization initiator, composition containing same, cured product of composition, production method for cured product, and compound” (ADEKA CORPORATION, priority 2018, dated 2023)
